Data from BindingDB's records for doi:10.1021/bi9016928 (Uppsala University, 2009).
Starred links: 1 amine or outer side, 2 acyl side, 3 side chain; linkers in the order of their positions; H or OH if unused. Non-standard residues stand in square brackets, D forms with d. Residues, ends and D or L forms follow the SMILES beside them. ξ: configuration not given here. Dip = N[C@H](C(=O)O)C(c1ccccc1)c1ccccc1; 2Nal = N[C@@H](Cc1ccc2ccccc2c1)C(=O)O; Cha = N[C@@H](CC1CCCCC1)C(=O)O; Ile(3ξ) = CCC(C)[C@H](N)C(=O)O; Chg = N[C@H](C(=O)O)C1CCCCC1; Suc = O=C(CCC(=O)[*:2])[*:1]

What follows are compounds tested against T1, Genome polyprotein (Hepacivirus hominis, UniProt Q04045) (assay: Competitive Inhibition Assay).
T1 sequence (Q04045 whole entry): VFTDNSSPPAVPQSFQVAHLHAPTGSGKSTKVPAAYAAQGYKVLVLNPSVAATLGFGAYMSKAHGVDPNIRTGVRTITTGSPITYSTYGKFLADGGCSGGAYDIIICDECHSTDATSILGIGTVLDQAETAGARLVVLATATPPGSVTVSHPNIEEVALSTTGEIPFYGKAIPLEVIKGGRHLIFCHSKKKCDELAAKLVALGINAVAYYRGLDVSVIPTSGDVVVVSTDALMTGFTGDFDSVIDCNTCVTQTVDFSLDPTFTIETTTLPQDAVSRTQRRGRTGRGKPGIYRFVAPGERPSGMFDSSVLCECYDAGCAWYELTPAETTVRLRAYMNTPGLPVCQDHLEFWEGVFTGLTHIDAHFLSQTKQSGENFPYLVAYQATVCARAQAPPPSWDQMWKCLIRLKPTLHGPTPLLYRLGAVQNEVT
Protocol: Analysis of the inhibition activation of flNS3 by the inhibitors was performed with the standard assay, allowing the inhibitor to preincubate with NS3 and NS4 for 15 min. prior to addition of substrate.
Compound `O=C(O)CCC(=O)N[C@H](C(=O)N[C@@H](CCC(=O)O)C(=O)N[C@@H](CC1CCCCC1)C(=O)N[C@@H](CS)C(=O)O)C1CCCCC1` [NS3 Protease Inhibitor, 4] (Suc-[Chg]E[Cha]C-OH) has a Ki of 150 nM. With `O=C(O)CCC(=O)N[C@H](C(=O)N[C@@H](CCC(=O)O)C(=O)N[C@@H](Cc1ccc2ccccc2c1)C(=O)N[C@@H](CS)C(=O)O)C1CCCCC1` [NS3 Protease Inhibitor, 2] (Suc-[Chg]E[2Nal]C-OH) the Ki was 180 nM. For `CCC[C@H](NC(=O)[C@@H]1C[C@@H](Oc2cc(-c3ccccc3)nc3cc(OC)ccc23)CN1C(=O)[C@@H](NC(=O)OC(C)(C)C)C(C)C)C(=O)NS(=O)(=O)c1ccccc1` [NS3 Protease Inhibitor, 8], the Ki was 170 nM. For `C=CC1C[C@]1(NC(=O)[C@@H]1C[C@@H](Oc2cc(-c3ccccc3)nc3cc(OC)ccc23)CN1C(=O)[C@@H](NC(=O)OC(C)(C)C)C(C)C)C(=O)O` (stereo partly specified) [NS3 Protease Inhibitor, 9], the Ki was 15 nM. For `CC(=O)N[C@H](C(=O)N[C@@H](CCC(=O)O)C(=O)N[C@@H](Cc1ccc2ccccc2c1)C(=O)N[C@@H](CS)C(=O)O)C1CCCCC1` [NS3 Protease Inhibitor, 5] (Ac-[Chg]E[2Nal]C-OH), the Ki was 500 nM. With `COc1ccc2c(O[C@@H]3C[C@H]4C(=O)N[C@]5(C(=O)O)C[C@H]5/C=C\CCCCC[C@H](NC(=O)OC5CCCC5)C(=O)N4C3)cc(-c3csc(NC(C)C)n3)nc2c1` the Ki was 0.12 nM. Compound `C=CC1C[C@]1(NC(=O)[C@@H]1C[C@@H](Oc2cc(-c3ccccc3)nc3cc(OC)ccc23)CN1C(=O)[C@@H](NC(=O)OC(C)(C)C)C(C)C)C(=O)NS(=O)(=O)c1ccccc1` (stereo partly specified) [NS3 Protease Inhibitor, 10] has a Ki of 0.22 nM. `C=CC1C[C@]1(NC(=O)[C@@H](NC(=O)C(NC(=O)OC(C)(C)C)C(C)C)c1ccc(Oc2cc(-c3ccccc3)nc3cc(OC)ccc23)cc1)C(=O)NS(=O)(=O)c1ccccc1` (stereo partly specified) [NS3 Protease Inhibitor, 7] gave a Ki of 290 nM. `CCC(C)[C@H](NC(=O)[C@@H](NC(=O)CCC(=O)O)C1CCCCC1)C(=O)N[C@@H](CC1CCCCC1)C(=O)N[C@@H](CS)C(=O)O` (stereo partly specified) [NS3 Protease Inhibitor, 1] (Suc-[Chg][Ile(3ξ)][Cha]C-OH) was tested, and the Ki was 330 nM. Work on `O=C(O)CCC(=O)N[C@H](C(=O)N[C@@H](CCC(=O)O)C(=O)N[C@@H](CCC(=O)O)C(=O)N[C@@H](CS)C(=O)O)C(c1ccccc1)c1ccccc1` [NS3 Protease Inhibitor, 3] (Suc-[Dip]EEC-OH) yielded a Ki of 520 nM. `COc1ccc2c(O[C@@H]3C[C@@H](C(=O)NC4(C(=O)O)CC4)N(C(=O)[C@@H](NC(=O)OC(C)(C)C)C(C)C)C3)cc(-c3ccccc3)nc2c1` [NS3 Protease Inhibitor, 6] gave a Ki of 1100 nM.
